Results reported in patent publication US11541010B2, “Amphoteric liposomes comprising imino lipids” (BioNTech Delivery Technologies GmbH, priority 2009, dated 2023).
“Also recorded” adds a separate entry of the source.

Columns and labels:
Assay type in all cases: cell-based
HeLa cells [1] = experiment: Serum resistant transfection, cationic lipids with phosphate lipid DOPA, HeLa IC50 (Example 15); conditions: liposomes of the cationic lipid in combination with phosphate lipid DOPA, PLK-1 siRNA
Procedure: (§1) HeLa cells were obtained from DSMZ (German Collection of Micro Organism and Cell Cultures) and maintained in DMFM (Gibco-Invitrogen) and supplemented with 10% FCS. The cells were plated at a density of 2.5×10^4 cells/ml and cultivated in 100 μl medium at 37° C. under 5% CO2. After 16 h, the liposomes containing siRNA were diluted and 10 μl were added to the cells to yield final concentrations between 0.4 to 100 nM Plk1 or scrambled siRNA; 10 μl dilution buffer were also added to untreated cells and into wells without cells. Cell culture dishes were incubated for 72 h at 37° C. under 5% CO2
(§2) Cell proliferation/viability was determined by using the CellTiter-Blue Cell Viability assay (Promega, US) according to the instructions of the supplier.
Series of liposomes having C/A ratios of either 0.75 or 1 were produced and loaded with siRNA as in Example 5. The cationic lipid components were CHOLGUA, CHIM, DC-CHOL, GUADACA, MPDACA, BADACA, PONA, DOTAP or DODAP. The anionic lipid was DOPA and the cholesterol content was 40 mol %, all lipid mixtures are identified in table 20. Liposomes were further supplied with 1.5 mol % DMPE-PEG2000 (Nippon Oils and Fats).
(§3) HeLa cells were grown and maintained as in Example 2 and mouse serum (SIGMA-Aldrich) was added directly to the cells for 120-min. Following that, the liposomes were added to the cells, incubation was continued for 72 h and cell viability was determined as above. The efficacy of transfection is expressed here as IC50 (in nM of siRNA) as in Example 5.

HeLa cells [2] = experiment: Serum resistant transfection, DACA or cholesterol based cationic lipids with carboxyl lipids, HeLa (Example 14); conditions: for serum-resistant transfection of HeLa cells: liposomes of the cationic lipid with carboxyl lipid DOGS and cholesterol, PLK-1 siRNA, 10% mouse serum; for transfection of HeLa cells in the presence of mouse serum: liposomes of the cationic lipid with carboxyl lipids CHEMS, DMGS or DOGS, 20 or 40 mol % cholesterol
Procedure: All liposomes were loaded with PLK-1 siRNA, an oligonucleotide capable of inhibiting the production of the cell cycle kinase PLK-1 and successful transfection was measured by inhibition of cell viability of the test cells (see also Haupenthai et al., int. J. Cancer (2007), 121:206-210. Unspecific inhibition of the cell viability, that is, cytotoxic effects, were monitored by control preparations comprising a non-targeting siRNA of the same general composition and in the same amounts.
The transfection of cells was followed in regular cell culture medium or with the additional presence of 10% mouse serum, a potent inhibitor of cellular uptake for many amphoteric liposomes. The efficacy of transfection is expressed as IC50, the concentration needed to achieve a 50% inhibition of the cell viability.
The ratio between the IC50 in regular medium and the IC50 upon addition of mouse serum is used as a metric for the inhibition of the cellular uptake by mouse serum. This ratio is 5 or higher for liposomes without specific targeting properties. It is 5 or lower for the liposomes of this invention; that is liposomes comprising charged imino groups in combination with negatively charged lipids.
Series of liposomes having systematically varied ratios between the cationic and anionic lipid components were produced and loaded with siRNA as in Example 5. The cationic lipid components were CHOLGUA, CHIM, DC-CHOL, TC-CHOL, GUADACA, MPDACA, BADACA end PDAGA. The anionic lipids were CHEMS, DMGS or DOGS and the cholesterol content was either 20 or 40 mol %, all lipid mixtures are identified in the data tables. Liposomes having a ratio of the cationic: anionic lipid of 1 or greater (C/A>=1) were further supplied with 1.5 mol % DMPE-PEG2000 (Nippon Oils and Fats).
as §3, with “120 min.” for “120-min.”, “The highest concentrations of liposomes were 40 nM and 36 nM for experiments in the absence or presence of mouse serum, respectively. The” for “The”, “nM” for “nM of”

HeLa cells [3] = experiment: Criticality of the guanido head group, HeLa proliferation IC50 with and without sera (Example 6); conditions: mixtures comprising an excess of the anionic lipid CHEMS, 20% cholesterol
Procedure: as §1, §2
Series of liposomes having systematically varied ratios between the cationic and anionic lipid components were produced and loaded with siRNA as in Example 5. The cationic lipid components were PONA, PONamine and PONammonium, the anionic lipid was CHEMS and the cholesterol content was fixed to 20 mol %. […]
HeLa cells were grown and maintained as in Example 2 and sera of human or mice origin (SIGMA-Aldrich) was added directly to the cells for 120 min. Following that, the liposomes were added to the cells in concentrations between 50 pM and 50 nM, incubation was continued for 72 h and cell viability was determined as above. […]

| SMILES | transfection of HeLa cells in the presence of serum (HeLa cells [1]) | serum-resistant transfection of HeLa cells (HeLa cells [2]) | transfection of HeLa cells in the presence of mouse serum (HeLa cells [2]) | transfection activity in the presence of sera (HeLa cells [3]) |
| --- | --- | --- | --- | --- |
| CC(C)CCC[C@@H](C)[C@H]1CC[C@H]2[C@@H]3CCC4CC(OC(=O)NCCCn5ccnc5)CC[C@]4(C)[C@H]3CC[C@]12C (some centres unmarked) [CHIM, reference compound] | did not result in any transfection in the presence of serum |  |  |  |
| CC(C)CCC[C@@H](C)[C@H]1CC[C@H]2[C@@H]3CC=C4C[C@@H](OC(=O)NCCNC(=N)N)CC[C@]4(C)[C@H]3CC[C@]12C [CHOLGUA] | remain potent transfectants even in the presence of mouse serum | best serum-resistant transfection | remain potent transfectants even in the presence of mouse serum |  |
| CC(C)CCC[C@@H](C)[C@H]1CC[C@H]2[C@@H]3CC=C4C[C@@H](OC(=O)NCCN(C)C)CC[C@]4(C)[C@H]3CC[C@]12C [DC-CHOL, reference compound] | did not result in any transfection in the presence of serum | still active in the absence, but no longer in the presence of mouse serum |  |  |
| CCCCCCCC/C=C/CCCCCCCC(=O)NC(CCNC(=N)N)C(=O)NCCCCCCCCCCCCCCCC (centres unmarked) [PONA, palmitoyl-oleoyl-nor-arginine] | resulted in serum-resistant transfection; also recorded: remain potent transfectants even in the presence of mouse serum |  | remain potent transfectants even in the presence of mouse serum |  |
| CCCCCCCC/C=C/CCCCCCCC(=O)NC(CCN)C(=O)NCCCCCCCCCCCCCCCC (centres unmarked) [PONamine] | resulted in serum-resistant transfection |  |  |  |
| CCCCCCCC/C=C/CCCCCCCC(=O)NC(CC[N+](C)(C)C)C(=O)NCCCCCCCCCCCCCCCC (centres unmarked) [PONammonium] | not PONammonium resulted in serum-resistant transfection |  |  | remained inactive in the presence of sera |
